Measured values reported in PMC13055374, “Engineered antimicrobial-derived peptides to manipulate mixed microbial systems” (Microbiology Spectrum, 2026).
Marks after values point to notes of the source that are not given here.

Experiments:
[1] = tested on: L. cremoris; assay: Cell-binding assay by flow cytometry; parameters: species or system Lactococcus cremoris; settings: organism printed as L. lactis; signal did not saturate; read-out: Apparent KD
Method: (§1) The binding affinity and avidity of pediocin to various gram-positive and gram-negative bacteria were studied using flow cytometry. Late log-phase cells were washed in the sodium phosphate buffer (5 mM, pH 6.0) and resuspended at an OD600 of 10^–3 in sodium-acetate buffer (25 mM, pH 4.0), sodium phosphate buffer (5 mM, pH 6.0), or sodium phosphate buffer (5 mM, pH 7.4) containing 1% bovine serum albumin (BSA) and 100 mM NaCl. Cells were incubated with varying concentrations of the conjugated peptide at 4°C for 30 min. The unbound peptide was removed by centrifugation, and the pellet was resuspended in its respective binding buffer containing 1% BSA. Flow cytometry was performed on an Attune NxT flow cytometer (Life Technologies/ThermoFisher Scientific, Carlsbad, CA). Data (≥10^4 events were recorded) were recorded using a […] (488 nm) at a voltage of 360 V, and gating was performed on an SSC-A versus SSC-H plot to reduce false events.

[2] = tested on: L. seeligeri; type: cell-based, Listeria seeligeri; settings: 24 h
Method: (§2) To determine the potency of the purified pediocin PA-1, we generated kill curves against a range of target bacteria (Fig. 1C). The concentration range tested was 3 pM to 3 μM following 10-fold serial dilutions. […] This is in approximate agreement with the published potency of pediocin PA-1 ([46]). Though the molecular mass of pediocin PA-1 is expected to be 4.5 kDa, we observed the partially purified peptide to migrate with an apparent mass of ~12.5 kDa (Fig. 1B). However, subsequent analysis by LC-MS yielded peaks of multiple m/z with the predominant peak at the expected molecular size of 4.6 kDa (Fig. S4). The purified pediocin PA-1, separated on denaturing but non-reducing SDS-PAGE (since this bacteriocin contains two crucial disulfide bonds), was subjected to agar-overlay assay using L. seeligeri as the indicator organism (Fig. S5).
(§3) The antimicrobial spectrum of pediocin PA-1 was assayed using a kill curve. Cultures grown overnight were resuspended in fresh medium at an OD600 of 0.05. EC50 was determined by incubating cells with varying concentrations of pediocin in a 96-well plate, and growth was measured at 600 nm after 24 h.
Figure S7. Growth inhibition of L. seeligeri by modified and unmodified pediocin PA-1.

[3] = Specific activity of partially purified pediocin by agar-well diffusion method; type: cell-based; settings: after cell adsorption-desorption and dialysis
Excerpt: We then proceeded to clone the pediocin operon (pedABCD [43]) from P. acidilactici UL5 into the pSIP-P27 vector for heterologous expression in other lactic acid bacteria, viz., Lactiplantibacillus plantarum WCFS1, Lactococcus cremoris MG1363, and the well-established expression host, E. coli MG1655. The pediocin operon imparted anti-listerial activity to the L. plantarum culture supernatant but not to that of L. cremoris or E. coli (Fig. 1A). Based on the degree of bioactivity, we concluded that the level of recombinant biosynthetic pediocin PA-1 accumulated in L. plantarum culture was […] that observed for P. acidilactici UL5 and was therefore not pursued further. Thus, for subsequent studies, we isolated pediocin PA-1 from P. acidilactici UL5 directly using the cell adsorption-desorption approach (Fig. S2). […] We attempted to further purify the preparation using reverse-phase high performance liquid chromatography with minimal enhancement in purity but a significant loss in yield (Fig. S3). The peptide recovered after cell adsorption-desorption and dialysis was lyophilized for long-term storage to minimize any loss in activity. The peptide using this method was purified 189-fold with a specific activity of 9,434 AU·mg^−1 as measured by agar-well diffusion method (Fig. 1B; Fig. S2A through C). […]

[4] = tested on: L. casei; assay: Cell-binding assay by flow cytometry; parameters: species or system Lacticaseibacillus casei; settings: signal did not saturate
Method: as §1

[5] = tested on: E. coli; assay: Cell-binding assay by flow cytometry; parameters: species or system Escherichia coli; settings: negative control species; signal did not saturate; read-out: Apparent KD
Method: as §1

[6] = tested on: L. coryniformis; type: cell-based, Lactobacillus coryniformis; settings: 24 h
Method: as §2, §3

[7] = tested on: L. coryniformis; assay: Cell-binding assay by flow cytometry; parameters: species or system Lactobacillus coryniformis; settings: maximum mean fluorescence intensity, Hill fit
Method: as §1

[8] = type: physicochemical
Excerpt: We then proceeded to clone the pediocin operon (pedABCD [43]) from P. acidilactici UL5 into the pSIP-P27 vector for heterologous expression in other lactic acid bacteria, viz., Lactiplantibacillus plantarum WCFS1, Lactococcus cremoris MG1363, and the well-established expression host, E. coli MG1655. The pediocin operon imparted anti-listerial activity to the L. plantarum culture supernatant but not to that of L. cremoris or E. coli (Fig. 1A). Based on the degree of bioactivity, we concluded that the level of recombinant biosynthetic pediocin PA-1 accumulated in L. plantarum culture was similar to that observed for P. acidilactici UL5 and was therefore not pursued further. Thus, for subsequent studies, we isolated pediocin PA-1 from P. acidilactici UL5 directly using the cell adsorption-desorption approach (Fig. S2). […] We attempted to further purify the preparation using reverse-phase high performance liquid chromatography with minimal enhancement in purity but a significant loss in yield (Fig. S3). The peptide recovered after cell adsorption-desorption and dialysis was lyophilized for long-term storage to minimize any loss in activity. The peptide using this method was purified 189-fold with a specific activity of 9,434 AU·mg^−1 as measured by agar-well diffusion method (Fig. 1B; Fig. S2A through C).

[9] = tested on: Bacillus subtilis; assay: Cell-binding assay by flow cytometry; settings: maximum mean fluorescence intensity, Hill fit
Method: as §1

With `CC[C@H](C)[C@@H]1NC(=O)[C@@H](NC(=O)[C@@H](NC(=O)[C@@H](NC(=O)[C@H](C)NC(=O)[C@H](CCCCN)NC(=O)CNC(=O)[C@H](Cc2c[nH]c3ccccc23)NC(=O)[C@H](CC(=O)O)NC(=O)[C@@H](NC(=O)[C@H](CO)NC(=O)[C@@H]2CSSC[C@H](NC(=O)[C@@H](NC(=O)[C@@H](NC(=O)CNC(=O)[C@H](CC(N)=O)NC(=O)CNC(=O)[C@H](Cc3ccc(O)cc3)NC(=O)[C@H](Cc3ccc(O)cc3)NC(=O)[C@@H](N)CCCCN)C(C)C)[C@@H](C)O)C(=O)NCC(=O)N[C@@H](CCCCN)C(=O)N[C@@H](Cc3c[nH]cn3)C(=O)N[C@@H](CO)C(=O)N2)C(C)C)[C@@H](C)O)[C@@H](C)O)CSSC[C@@H](C(=O)O)NC(=O)[C@H](CCCCN)NC(=O)[C@H](Cc2c[nH]cn2)NC(=O)[C@H](CC(N)=O)NC(=O)CNC(=O)[C@H](CCC(N)=O)NC(=O)[C@H](Cc2c[nH]cn2)NC(=O)CNC(=O)CNC(=O)[C@H]([C@@H](C)O)NC(=O)[C@H](C)NC(=O)[C@H](Cc2c[nH]c3ccccc23)NC(=O)[C@H](C)NC(=O)[C@H](CCSC)NC(=O)[C@H](C)NC(=O)CNC(=O)[C@H](CC(N)=O)NC(=O)[C@H](CC(N)=O)NC(=O)[C@H]([C@@H](C)CC)NC1=O` [pediocin PA-1] the Kd [1] was > 2000 nM, the EC50 [2] was ~13.3 nM and the specific activity [3] was 9,434 AU·mg^−1. The MFImax [4] was >2* ×10^3, the Kd ([4]; read-out: Apparent KD) was > 2000 nM and the Kd [5] was > 2000 nM. The EC50 [6] was ~1 nM, the MFImax [7] was 6.3 ± 0.3 ×10^3 and the “stability of peptide recovered at acidic pH compared with basic pH” value [8] was “more stable”. The MFImax [9] was 7 ± 1 ×10^3.
